From patent US20130030017A1, “QUINOLINE DERIVATIVES AS ANTIBACTERIAL AGENTS” (priority 2005, published 2013)
Values after ≈ are worked out from the molar mass of the structure shown.

What was measured:
Type in all cases: cell-based
[1] = test system: Streptococcus pneumoniae (ATCC6305); test: Microtitre plate assay, IC90 determination (SPN 6305); details: 90% inhibitory concentration for bacterial growth, 37° C., 24 hours, resazurin fluorescence
Experimental: (§1) The bacteria used in this study were grown overnight in flasks containing 100 ml Mueller-Hinton Broth (Becton Dickinson—cat. no. 275730) in sterile de-ionized water, with shaking, at 37° C. Stocks (0.5 ml/tube) were stored at −70° C. until use. Bacteria titrations were performed in microtiter plates and colony forming units (CFUs) were determined. In general, an inoculum level of approximately 100 CFUs was used for susceptibility testing.
(§2) Flat-bottom, sterile 96-well plastic microtiter plates were filled with 180 μl of sterile deionized water, supplemented with 0.25% BSA. Subsequently, stock solutions (7.8× final test concentration) of compounds were added in 45 μl volumes in column 2 Serial five-fold dilutions (45 μl in 180 μl) were made directly in the microtiter plates from column 2 to reach column 11. Untreated control samples with (column 1) and without (column 12) inoculum were included in each microtiter plate. Depending on the bacteria type, approximately 10 to 60 CFU per well of bacteria inoculum (100 TCID50), in a volume of 100 μl in 2.8× Mueller-Hinton broth medium, was added to the rows A to H, except column 12. The same volume of broth medium without inoculum was added to column 12 in row A to H. The cultures were incubated at 37° C. for 24 hours under a normal atmosphere (incubator with open air valve and continuous ventilation). At the end of incubation, one day after inoculation, the bacterial growth was quantitated fluorometrically. Therefore resazurin (0.6 mg/ml) was added in a volume of 20 μl to all wells 3 hours after inoculation, and the plates were re-incubated overnight. A change in colour from blue to pink indicated the growth of bacteria. The fluorescence was read in a computer-controlled fluorometer (Cytofluor Biosearch) at an excitation wavelength of 530 nm and an emission wavelength of 590 nm. The % growth inhibition achieved by the compounds was calculated according to standard methods. The IC90 (expressed in μg/ml) was defined as the 90% inhibitory concentration for bacterial growth.

[2] = test system: Staphylococcus aureus (ATCC29213); test: Microtitre plate assay, IC90 determination (STA 29213); details: 90% inhibitory concentration for bacterial growth, 37° C., resazurin fluorescence; for IC90 STA 29213: 24 hours; for IC90: Staphylococcus aureus, ATCC29213, 24 h
Experimental: as §1, §2

[3] = test system: Pseudomonas aeruginosa (ATCC27853); test: Microtitre plate assay, IC90 determination (PAE 27853); details: 90% inhibitory concentration for bacterial growth, 37° C., resazurin fluorescence; for IC90 PAE 27853: 24 hours; for IC90: Pseudomonas aeruginosa, ATCC27853, 24 h
Experimental: as §1, §2

[4] = test system: Enterococcus faecalis (ATCC29212); test: Microtitre plate assay, IC90 determination (EFA 29212); details: 90% inhibitory concentration for bacterial growth, 37° C., resazurin fluorescence; for IC90 EFA 29212: 24 hours; for IC90: Enterococcus faecalis, ATCC29212, 24 h
Experimental: as §1, §2

[5] = test system: Streptococcus pyogens (ATCC8668); test: Microtitre plate assay, IC90 determination (SPY 8668); details: 90% inhibitory concentration for bacterial growth, 37° C., resazurin fluorescence; for IC90 SPY 8668: 24 hours; for IC90: Streptococcus, ATCC8668, 24 h
Experimental: as §1, §2

SMILES | IC90 SPN 6305 [1] | IC90 STA 29213 [2] | IC90 PAE 27853 [3] | IC90 EFA 29212 [4] | IC90 SPY 8668 [5] | IC90 [2] | IC90 [3] | IC90 [4] | IC90 [5]
COc1nc2ccc(Br)cc2cc1C(c1ccccc1)C(O)(CCc1ccc(F)cc1)CCN(C)C (racemic) [Compound 49] | 2.2 mg/L (≈ 3.99 µM) | 11.0 mg/L (≈ 19.9 µM) | 43.8 mg/L (≈ 79.4 µM) | 43.8 mg/L (≈ 79.4 µM) | 43.8 mg/L (≈ 79.4 µM) | – | – | – | –
COc1nc2ccc(Br)cc2cc1C(c1ccccc1)C(O)(CCc1ccc(C)cc1)CCN(C)C (racemic) [Compound 52] | 1.4 mg/L (≈ 2.56 µM) | 6.9 mg/L (≈ 12.6 µM) | 1.7 mg/L (≈ 3.1 µM) | 1.7 mg/L (≈ 3.1 µM) | 1.7 mg/L (≈ 3.1 µM) | – | – | – | –
COc1nc2ccc(Br)cc2cc1C(c1ccccc1)C(O)(CCc1ccccc1Cl)CCN(C)C (racemic) [Compound 54] | 2.3 mg/L (≈ 4.05 µM) | 10.1 mg/L (≈ 17.8 µM) | 2.0 mg/L (≈ 3.52 µM) | 4.5 mg/L (≈ 7.92 µM) | 2.0 mg/L (≈ 3.52 µM) | – | – | – | –
COc1nc2ccc(-c3cccs3)cc2cc1C(c1ccccc1)C(O)(CCc1ccccc1)CCN(C)C (racemic) [Compound 63] | 2.1 mg/L (≈ 3.91 µM) | 10.7 mg/L (≈ 19.9 µM) | 8.5 mg/L (≈ 15.8 µM) | 19.0 mg/L (≈ 35.4 µM) | 21.4 mg/L (≈ 39.9 µM) | – | – | – | –
COc1nc2ccc(C)cc2cc1C(c1ccccc1)C(O)(CCc1ccccc1)CCN(C)C (stereo not drawn) [Compound 2] | 1.9 mg/L (≈ 4.05 µM) | 7.4 mg/L (≈ 15.8 µM) | 37.2 mg/L (≈ 79.4 µM) | 37.2 mg/L (≈ 79.4 µM) | 37.2 mg/L (≈ 79.4 µM) | – | – | – | –
COc1ccc2nc(OC)c(C(c3ccccc3)C(O)(CCc3ccccc3)CCN(C)C)cc2c1 (stereo not drawn) [Compound 3] | 3.4 mg/L (≈ 7.02 µM) | – | – | – | – | 12.2 mg/L (≈ 25.2 µM) | 9.7 mg/L (≈ 20 µM) | 9.7 mg/L (≈ 20 µM) | 9.7 mg/L (≈ 20 µM)
CSc1nc2ccc(Br)cc2cc1C(c1ccccc1)C(O)(CCc1ccccc1)CCN(C)C (stereo not drawn) [Compound 11] | 3.9 mg/L (≈ 7.1 µM) | 11.0 mg/L (≈ 20 µM) | – | – | – | – | 43.7 mg/L (≈ 79.5 µM) | 43.7 mg/L (≈ 79.5 µM) | 8.7 mg/L (≈ 15.8 µM)
COc1nc2ccc(Br)cc2cc1C(c1ccccc1)C(O)(CCc1ccccc1)CCN(C)C (stereo not drawn) [Compound 18] | 2.1 mg/L (≈ 3.94 µM) | 8.5 mg/L (≈ 15.9 µM) | 10.6 mg/L (≈ 19.9 µM) | 10.6 mg/L (≈ 19.9 µM) | 8.5 mg/L (≈ 15.9 µM) | – | – | – | –
COc1nc2ccc(Br)cc2cc1C(c1ccccc1)C(O)(CCc1ccccc1)CCN(C)C (stereo not drawn) [Compound 19] | 2.1 mg/L (≈ 3.94 µM) | 8.5 mg/L (≈ 15.9 µM) | 1.7 mg/L (≈ 3.19 µM) | 1.7 mg/L (≈ 3.19 µM) | 1.7 mg/L (≈ 3.19 µM) | – | – | – | –
COc1nc2ccc(Br)cc2cc1C(c1ccccc1)C(O)(CCc1ccccc1)CCN(C)C (stereo not drawn) [Compound 20] | 1.1 mg/L (≈ 2.06 µM) | – | 1.7 mg/L (≈ 3.19 µM) | 1.7 mg/L (≈ 3.19 µM) | 1.7 mg/L (≈ 3.19 µM) | 8.5 mg/L (≈ 15.9 µM) | – | – | –
COc1ccc(CCC(O)(CCN(C)C)C(c2ccc(Cl)cc2)c2cc3cc(Br)ccc3nc2OC)cc1 (stereo not drawn) [Compound 22] | 0.4 mg/L (≈ 0.669 µM) | – | – | 9.5 mg/L (≈ 15.9 µM) | – | 1.9 mg/L (≈ 3.18 µM) | 1.9 mg/L (≈ 3.18 µM) | – | 1.9 mg/L (≈ 3.18 µM)
COc1nc2ccc(Br)cc2cc1C(c1ccccc1)C(O)(CCc1ccc(F)cc1)CCN(C)C (stereo not drawn) [Compound 26] | 2.0 mg/L (≈ 3.63 µM) | 4.4 mg/L (≈ 7.98 µM) | 1.7 mg/L (≈ 3.08 µM) | 1.7 mg/L (≈ 3.08 µM) | 1.7 mg/L (≈ 3.08 µM) | – | – | – | –
